“And” between values parts separate entries of the source, which are not always exact repeats. Identical values can stand only once. “Also recorded” adds a separate entry of the source. Like-named read-outs stand apart in the source and are kept apart here.
Legend:
[1] = test system: MM.1S cells proteome; test: diaPASEF quantitative proteomics in MM.1S cells: proteome-wide degradation selectivity (other proteins); format: cell-based, human; details: per-replicate values (rep1, rep2)
Method: To analyze the proteome-wide degradation selectivity of hetero-PROTACs 9, 25, and 27, a diaPASEF-based mass spectrometry approach was employed.[54] MM.1S cells were treated with 100 nM PROTACs for 3 h. […] Accordingly, global proteomic plots show the mathematically imputed levels of IAP proteins in treatment groups if the corresponding IAP was detected in the control treatment (see also Experimental Section).
MM1s cells were treated with DMSO or 0.1 μM of compound for 3 h. The cells were harvested by centrifugation and washed with phosphate-buffered saline before snap-freezing in liquid nitrogen. The cells were lysed by addition of lysis buffer (8 M urea, 50 mM NaCl, 50 mM 4-(2-hydroxyethyl)-1-piperazine-ethanesulfonic acid (EPPS) pH 8.5, protease, and phosphatase inhibitors) and homogenization by bead beating (BioSpec) for three repeats of 30 s at 2400. Bradford assay was used to determine the final protein concentration in the clarified cell lysate. 50 μg of protein for each sample was reduced, alkylated, and precipitated using methanol/chloroform as previously described,[64] and the resulting washed precipitated protein was allowed to air dry. The precipitated protein was resuspended in 4 M urea, 50 mM HEPES pH 7.4, followed by dilution to 1 M urea with the addition of 200 mM EPPS, pH 8. […] The LysC digestion was diluted to 0.5 M urea with 200 mM EPPS pH 8, followed by digestion with trypsin (1:50; enzyme/protein) for 6 h at 37 °C. Sample digests were acidified with formic acid to a pH of 2–3 prior to desalting using C18 solid-phase extraction plates (SOLA, Thermo Fisher Scientific). Desalted peptides were dried in a vacuum centrifuge and reconstituted in 0.1% formic acid for LC–MS analysis.
Data were collected using a TimsTOF Pro2 (Bruker Daltonics, Bremen, Germany) coupled to a nanoElute LC pump (Bruker Daltonics, Bremen, Germany) via a CaptiveSpray nanoelectrospray source. […] Peptides were separated using a 50 min gradient of 2–30% buffer B (acetonitrile in 0.1% formic acid) with a flow rate of 250 nL/min and column temperature maintained at 50 °C.
Data-Dependent Acquisition (DDA) was performed in the Parallel Accumulation-Serial Fragmentation (PASEF) mode to determine effective ion mobility windows for downstream diaPASEF data collection.[54] The diaPASEF parameters included 100% duty cycle using accumulation and ramp times of 50 ms each, 1 TIMS-MS scan, and 10 PASEF ramps per acquisition cycle. The TIMS-MS survey scan was acquired between 100–1700 m/z and 1/K0 of 0.7–1.3 V × s/cm^2. Precursors with 1–5 charges were selected, and those that reached an intensity threshold of 20,000 arbitrary units were actively excluded for 0.4 min. The quadrupole isolation width was set to 2 m/z for m/z < 700 and 3 m/z for m/z > 800, with the m/z between 700 and 800 m/z being interpolated linearly. […] To perform diaPASEF, the precursor distribution in the DDA m/z-ion mobility plane was used to design an acquisition scheme for DIA data collection, which included two windows in each 50 ms diaPASEF scan. Data was acquired using 16 of these 25 Da precursor double window scans (creating 32 windows), which covered the diagonal scan line for doubly and triply charged precursors, with singly charged precursors able to be excluded by their position in the m/z-ion mobility plane. These precursor isolation windows were defined between 400–1200 m/z and 1/K0 of 0.7–1.3 V × s/cm^2.
The diaPASEF raw file processing and controlling peptide and protein level false discovery rates, assembling proteins from peptides, and protein quantification from peptides were performed using library-free analysis in DIA-NN 1.8.[65] The library-free mode performs an in silico digestion of a given protein sequence database alongside deep learning-based predictions to extract the DIA precursor data into a collection of MS^2 spectra.

[2] = test system: RPMI-8826; test: CellTiter-Glo cell viability assay, RPMI-8826; format: cell-based
Method: (§1) As TNF-α and related signaling cascades represent crucial factors for the single-agent activity of IAP-targeting compounds,[29],[38],[39],[55] the viability inhibition of sensitive cell lines was evaluated in the presence and absence of this inflammatory stimulus. […] These effects were independent of IAP baseline levels (Figure S16), which is in agreement with the previous studies of IAP antagonists.
(§2) Cells were seeded in 384-well plates with respective treatments, and plates were incubated at 37 °C for 96 h. Viability assays were performed with or without the addition of TNF-α at 1 ng/mL. The cell viability readout was measured using the CellTiter-Glo Luminescent Cell Viability Assay (Promega, Madison, USA) and measured with a Synergy LX Multi-Mode plate reader (BioTek, Vermont, USA). All conditions were normalized to the DMSO-treated control. Data represents the mean ± SD of biological triplicates.

[3] = biological target: XIAP (Homo sapiens, UniProt P98170); test: Immunoblotting (western blot) quantification of XIAP levels in MM.1S cells; details: MM1.S, 16 h, read-out: %remaining protein XIAP, MM.1S cells, 16 h treatment at 0.1 μM, normalized to loading control and DMSO
[4] = biological target: cIAP2 (Homo sapiens, UniProt Q13489); test: Immunoblotting (western blot) quantification of cIAP2 levels in MM.1S cells; details: MM1.S, 16 h, read-out: %remaining protein cIAP2, MM.1S cells, 16 h treatment at 0.1 μM, normalized to loading control and DMSO
Method: (§3) To evaluate the capability of our panel of hetero-PROTACs for E3 ligase degradation, VHL19, VHL30, CRBN, cIAP1, cIAP2, and XIAP levels were quantified by western blot analyses. […] SDS-PAGE was performed, and proteins were then transferred onto PVDF membranes. Blotted membranes were blocked with 5% milk in Tris-buffered saline/Tween20 (TBST). Primary antibodies were diluted in 5% BSA in TBST, and incubations were performed overnight at 4 °C. Secondary HRP-conjugated antibodies diluted in 5% milk were incubated for 1 h at room temperature. Detection of proteins on PVDF was carried out using the WesternBright ECL HRP substrate or the WesternBright Sirius HRP substrate (Advansta, San Jose, USA) and imaged with LAS 4000× (Fujifilm). Membranes were subjected to 10 min incubation with Restore Western Blot Stripping Buffer (Thermo Fisher Scientific, Waltham, USA), followed by TBST washes. After brief re-activation with methanol, the membranes were blocked, and further probing of proteins was carried out.
(§4) Quantification of blots was performed using ImageJ software (National Institutes of Health).

[5] = test system: K562; test: CellTiter-Glo cell viability assay, K562; format: cell-based; details: Homo sapiens
Method: as §1, §2

[6] = test system: MOLM13; test: CellTiter-Glo cell viability assay, MOLM13; format: cell-based; details: Homo sapiens
Method: as §1, §2

[7] = test system: JJN3; test: CellTiter-Glo cell viability assay, JJN3; format: cell-based; details: Homo sapiens
Method: as §1, §2

[8] = test system: HEL; test: CellTiter-Glo cell viability assay, HEL; format: cell-based; details: Homo sapiens, HEL
Method: as §1, §2

[9] = test system: DB; test: CellTiter-Glo cell viability assay, DB; format: cell-based; details: Homo sapiens, DB
Method: as §1, §2

[10] = test system: NCI-H929; test: CellTiter-Glo cell viability assay, NCI-H929; format: cell-based; details: Homo sapiens
Method: as §1, §2

[11] = test system: IKZF3; test: Immunoblotting (western blot) quantification of IKZF3 levels in MM.1S cells; details: 16 h treatment at 0.1 μM, normalized to loading control and DMSO
Method: as §3, §4

[12] = test system: SUDHL6; test: CellTiter-Glo cell viability assay, SUDHL6; format: cell-based; details: Homo sapiens
Method: as §1, §2

[13] = test system: SUDHL4; test: CellTiter-Glo cell viability assay, SUDHL4; format: cell-based; details: Homo sapiens
Method: as §1, §2

[14] = test system: IAPs (cIAP1, cIAP2, XIAP); test: Immunoblotting of IAPs in MM.1S cells, overall degradation profile, time course and washout; format: cell-based; details: 16 h, western blot, concentration (10 nM to 1 μM)
Method: Next, we examined the persistence of IAP degradation in MM.1S cells after a single exposure to 1 μM of 9 and subsequent removal of the compound. […] The reliance on CRL2^VHL was assessed with a neddylation inhibitor MLN4924, which blocks the activity of CRLs (Figure S13A).

[15] = Log D7.4 measurement by chromatographic (fast-gradient HPLC) method; details: pH 7.4
Method: The system was calibrated by plotting the retention times of six different drugs (atenolol, metoprolol, labetalol, diltiazem, triphenylene, and permethrin) versus their literature-known log D7.4 in a calibration line (R^2 = 0.99). Subsequently, the mean retention times of the analytes were taken to calculate their log D7.4 values with the aid of the calibration line. At least two independent measurements of each analyte were performed.

Chain of cIAP2 (Q13489 whole entry): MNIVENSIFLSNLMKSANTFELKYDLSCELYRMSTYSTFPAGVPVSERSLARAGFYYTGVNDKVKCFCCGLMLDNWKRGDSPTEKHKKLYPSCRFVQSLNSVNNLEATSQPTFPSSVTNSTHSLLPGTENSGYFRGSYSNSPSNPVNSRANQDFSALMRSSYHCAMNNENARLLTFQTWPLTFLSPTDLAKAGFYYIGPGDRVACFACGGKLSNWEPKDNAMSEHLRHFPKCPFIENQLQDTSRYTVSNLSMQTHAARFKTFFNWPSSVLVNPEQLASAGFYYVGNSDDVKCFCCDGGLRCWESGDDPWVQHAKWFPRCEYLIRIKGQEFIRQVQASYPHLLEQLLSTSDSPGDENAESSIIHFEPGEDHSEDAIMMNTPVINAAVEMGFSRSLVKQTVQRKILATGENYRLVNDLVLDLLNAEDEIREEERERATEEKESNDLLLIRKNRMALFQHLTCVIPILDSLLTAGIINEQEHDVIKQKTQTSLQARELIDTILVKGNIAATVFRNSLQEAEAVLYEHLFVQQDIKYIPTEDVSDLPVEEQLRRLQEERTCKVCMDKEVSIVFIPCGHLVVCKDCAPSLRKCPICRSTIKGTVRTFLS
Chain of XIAP (P98170 whole entry): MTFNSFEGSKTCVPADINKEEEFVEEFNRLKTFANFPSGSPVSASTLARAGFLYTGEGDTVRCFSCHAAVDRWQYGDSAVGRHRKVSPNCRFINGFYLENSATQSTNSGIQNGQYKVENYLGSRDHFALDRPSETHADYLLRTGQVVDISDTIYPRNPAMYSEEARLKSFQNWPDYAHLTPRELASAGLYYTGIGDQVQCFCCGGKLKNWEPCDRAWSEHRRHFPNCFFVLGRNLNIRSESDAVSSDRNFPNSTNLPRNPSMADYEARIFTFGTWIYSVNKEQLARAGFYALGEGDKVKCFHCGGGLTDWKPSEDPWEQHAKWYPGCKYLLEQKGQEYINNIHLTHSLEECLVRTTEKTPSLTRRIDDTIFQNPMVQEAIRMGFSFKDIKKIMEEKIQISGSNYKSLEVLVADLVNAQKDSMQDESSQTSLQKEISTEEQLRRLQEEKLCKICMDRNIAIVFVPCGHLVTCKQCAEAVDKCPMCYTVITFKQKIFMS

Structure (SMILES): Nc1cccc2c1C(=O)N(C1CCC(=O)NC1=O)C2=O (stereo not drawn) [POM, pomalidomide, reference compound]
- Precursor intensity (DIA-NN), CLPX precursor AAAAADLANR2 ([1]; CLPX_HUMAN (O76031), ATP-dependent Clp protease ATP-binding subunit clpX-like, mitochondrial, precursor charge 2): 24680.8 and 25422.9
- Precursor intensity (DIA-NN), RPL4 precursor AAAAAAALQAK1 ([1]; RL4_HUMAN (P36578), 60S ribosomal protein L4, precursor charge 1): 763.617
- Precursor intensity (DIA-NN), RPL4 precursor AAAAAAALQAK2 ([1]; RL4_HUMAN (P36578), 60S ribosomal protein L4, precursor charge 2): 420512 and 433546
- Precursor intensity (DIA-NN), SAMD1 precursor AAAAAATAPPSPGPAQPGPR2 ([1]; SAMD1_HUMAN (Q6SPF0), Atherin, precursor charge 2): 19530.8 and 11746.1
- Precursor intensity (DIA-NN), ZFP91 precursor AAAAAAAAAVSR2 ([1]; ZFP91_HUMAN (Q96JP5), E3 ubiquitin-protein ligase ZFP91, precursor charge 2): 26049.6 and 28242.6
- IC50 ([2]; read-out: RPMI-8826): > 10 µM
- remaining activity at 0.1 µM [3]: 95%
- remaining activity at 0.1 µM [4]: 95%
- IC50 ([5]; K562, read-out: K562): > 10 µM
- IC50 ([6]; MOLM-13, read-out: MOLM13): > 10 µM
- IC50 ([7]; JJN-3, read-out: JJN3): 42 nM
- IC50 ([8]; read-out: HEL): > 10 µM
- IC50 ([9]; read-out: DB): > 10 µM
- IC50 ([10]; NCI-H929, read-out: NCI-H929): > 10 µM
- %remaining protein IKZF3 [11]: 14%
- IC50 ([12]; SU-DHL-6, read-out: SUDHL6): > 10000 nM
- IC50 ([13]; SU-DHL-4, read-out: SUDHL4): > 10 µM

Structure (SMILES): CN[C@@H](C)C(=O)N[C@H](C(=O)N1C[C@@H](Oc2cccc(OCCCCC(=O)N[C@H](C(=O)N3C[C@@H](O)C[C@H]3C(=O)NCc3ccc(-c4scnc4C)cc3)C(C)(C)C)c2)C[C@H]1C(=O)N[C@@H]1CCCc2ccccc21)C1CCCCC1 [PROTAC 11, (2S,4S)-1-((S)-2-Cyclohexyl-2-((S)-2-(methylamino)propanamido)acetyl)-4-(3-((5-(((S)-1-((2S,4S)-4-hydroxy-2-((4-(4-methylthiazol-5-yl)benzyl)carbamoyl)pyrrolidin-1-yl)-3,3-dimethyl-1-oxobutan-2-yl)amino)-5-oxopentyl)oxy)phenoxy)-N-((R)-1,2,3,4-tetrahydronaphthalen-1-yl)pyrrolidine-2-carboxamide]
- IC50 ([2]; MM cell line, 96 h, TNFα-challenged, read-out: IC50 cell viability RPMI-8826): > 5 µM
- IC50 ([2]; SI csv, head prints only the cell line, no quantity or unit, values parallel Table 1/S8, read-out: RPMI-8826): > 10 µM
- IC50 ([5]; K562, AML cell line, 96 h, TNFα-challenged, read-out: IC50 cell viability K562): > 5 µM
- IC50 ([5]; SI csv, head prints only the cell line, no quantity or unit, values parallel Table 1/S8, read-out: K562): > 10 µM
- IAP degradation profile (in words) [14]: induce only cIAP1 degradation; also recorded: only induced cIAP1 degradation
- chromatographic logD [15]: 3.3
- IC50 ([6]; MOLM-13, AML cell line, 96 h, TNFα-challenged, read-out: IC50 cell viability MOLM13): > 1 µM
- IC50 ([7]; JJN-3, MM cell line, 96 h, TNFα-challenged, read-out: IC50 cell viability JJN3): > 5000 nM
- IC50 ([7]; JJN-3, SI csv, head prints only the cell line, no quantity or unit, values parallel Table 1/S8, read-out: JJN3): > 10000 nM
- IC50 ([8]; AML cell line, 96 h, TNFα-challenged, read-out: IC50 cell viability HEL): > 10 µM
- IC50 ([9]; DLBCL cell line, 96 h, TNFα-challenged, read-out: IC50 cell viability DB): > 5 µM
- IC50 ([10]; NCI-H929, MM cell line, 96 h, TNFα-challenged, read-out: IC50 cell viability NCI-H929): > 5 µM
- IC50 ([10]; SI csv, head prints only the cell line, no quantity or unit, values parallel Table 1/S8, read-out: NCI-H929): > 10 µM
- IC50 ([12]; SU-DHL-6, DLBCL cell line, 96 h, TNFα-challenged, read-out: IC50 cell viability SUDHL6): 170 nM
- IC50 ([13]; SU-DHL-4, DLBCL cell line, 96 h, TNFα-challenged, read-out: IC50 cell viability SUDHL4): > 5 µM
- IC50 ([13]; SU-DHL-4, SI csv, head prints only the cell line, no quantity or unit, values parallel Table 1/S8, read-out: SUDHL4): > 10 µM

Source: PMC10108347, “Heterobifunctional Ligase Recruiters Enable pan-Degradation of Inhibitor of Apoptosis Proteins” (Journal of Medicinal Chemistry, 2023)
